Entries after “also recorded” stand apart in the source; their conditions may differ. Counter-ions that a name gives are not always drawn. Like-named read-outs stand apart in the source and are kept apart here.
How the values were obtained:
[1] = system: NCC (lysis of IM-9 target cells); assay: NCC cytotoxicity (51Cr release) after treatment with protein kinase inhibitors; format: cell-based, channel catfish (Ictalurus punctatus); conditions: for Percentage specific release: media control 25.9%; for activation at 30 µM / activation at 60 µM: read-out: Percentage increase (vs media control)
Description: To prepare NCC, fish were lightly anesthetized with ethyl m-aminobenzoate (Sigma Chemical Co.) in water and sacrificed.
IM-9 target cells were used in cytotoxicity assays. […] Cells were grown in stationary suspension cultures and were maintained at approximately 1×10^6 cells/ml. […]

protein kinase C (PKC) = conditions: cited from earlier work
[2] = system: cyclic nucleotide dependent kinases; conditions: cited from earlier work
[3] = system: NCC (lysis of IM-9 target cells); assay: Costimulation assay: NCC cytotoxicity (51Cr release) with A23187 or mab 5C6; format: cell-based, channel catfish (Ictalurus punctatus); conditions: for activity at 60 µM: Ictalurus punctatus, IM-9, 2 h, mabs 1:50 dilution, H-7, HA1004 60 μM, genistein 0.5 μg/ml
Description: Incubation was two hours and cells were either washed or not washed before addition to ^51 Cr-labeled IM-9 target cells (4- to 6-hour cytotoxicity assays).
To further investigate this inhibitory effect, a costimulus experiment was done using a calcium ionophore, e.g., A23187, combined with the various inhibitors and activators of NCC activity. Pretreatment of NCC with A23187 produced an almost identical increase in cytotoxicity regardless of the identity of the first treatment.
In a second costimulus experiment mab 5C6 was used (instead of A23187) to activate cytotoxicity (Table 6).

[4] = system: NCC membrane proteins (tyrosine phosphorylation); assay: Tyrosine phosphorylation of NCC membrane proteins following mab 5C6 activation (Western blot); format: cell-based, channel catfish (Ictalurus punctatus); conditions: NCC pretreated two hours with inhibitor; 100 μg/ml genistein or 30 μM HA1004
Description: FIG. 1. Tyrosine phosphorylation of NCC membrane proteins following activation by mab 5C6. NCC were resuspended at 500×10^6 /ml and 200 μl aliquots were incubated at 37° C. with either 125 μl ammonium sulfate precipitate mab 5C6 (left panel) or an isotype control (right panel). At the indicated timed intervals, the reactions were terminated by addition of 325 μl of 2×lysis buffer. Lysates were immunoprecipitated with mab 4G10, electrophoresed on 11% SDS-PAGE, blotted onto nitrocellulose, and probed with mab 4G10. Molecular weight markers are indicated by the arrows.
FIG. 2. Tyrosine phosphorylation of Percoll-enriched NCC. Fish NCC were centrifuged for 15 minutes at 500 g on a 45.5% Percoll cushion. The cells at the interphase were harvested, washed, and treated with mab 5C6 for 0 and 20 sec before addition of 2×lysis buffer. Lysates were electrophoresed, blotted on nitrocellulose, and probed with mab 4G10.
FIG. 3. Effects of genistein on tyrosine phosphorylation in fish NCC. Fish NCC were incubated with media, genistein (100 μg/ml), or HA1004 (30 μM) for two hours prior to activation for zero time with mab 5C6 (left lane) and 40 sec with either mab 5C6 (middle lane) or an irrelevant IgM isotype control (right lane). Reactions were stopped by addition of lysis buffer and lysates were processed as explained in the legends to FIGS. 1 and 2. […]

Na^+ /K^+ ATPase = conditions: cited from earlier work

Q: Which results are given for `CNCCNS(=O)(=O)c1cccc2cnccc12.Cl.Cl` [H-8, N-(2-(methylamino)ethyl)-5-isoquinolinesulfonamide di-HCl]?
A: inhibition of NCC cytotoxicity [1]: time and dose dependent inhibition of NCC cytotoxicity; inhibition at 30 µM ([1]; Ictalurus punctatus, 1.5 h, read-out: Percentage inhibition (NCC activity), 30 μM, 90 minutes, washed, E:T 80.1): 0%; inhibition at 60 µM ([1]; Ictalurus punctatus, 1.5 h, read-out: Percentage inhibition (NCC activity), 60 μM, 90 minutes, washed, E:T 80.1): 13.8%; inhibition at 150 µM ([1]; Ictalurus punctatus, 1.5 h, read-out: Percentage inhibition (NCC activity), 150 μM, 90 minutes, washed, E:T 80.1): 36.9%; inhibition at 300 µM ([1]; Ictalurus punctatus, 1.5 h, read-out: Percentage inhibition (NCC activity), 300 μM, 90 minutes, washed, E:T 80.1): 46.5%; inhibition of NCC activity, comparison with H-7 ([1]; approximately 150 μM H-8, di-HCl): levels of inhibition comparable to that obtained with an approximately 30 μM concentration of H-7; effect on protein kinase C (protein kinase C (PKC); di-HCl): almost no effect on PKC activity; also recorded: limited effect on PKC; inhibition of cyclic nucleotide dependent kinases [2]: more inhibitory of cyclic nucleotide dependent kinases

Q: Which “effect of removal (washing) of inhibitor on cytotoxicity” value [1] does the source give for `N=C(N)NCCNS(=O)(=O)c1cccc2cnccc12` [HA1004, N-(2-guanidoethyl)-5-isoquinolinesulfonamide di-HCl] here?
A: did not reduce the augmentation of cytotoxicity

Q: And the Percentage specific release ([1]; 30 μM, 60 min)?
A: 38.7%

Q: What about the Percentage specific release ([1]; 30 μM, 120 min) of the same compound?
A: 39.0%

Q: And the Percentage specific release ([1]; 30 μM, 180 min/wash)?
A: 36.0%

Q: What about the Percentage specific release ([1]; 30 μM, 180 min) of the same compound?
A: 35.9%

Q: And the Percentage specific release ([1]; 60 μM, 60 min)?
A: 38.5%

Q: What about the Percentage specific release ([1]; 60 μM, 120 min) of the same compound?
A: 36.9%

Q: What about the Percentage specific release ([1]; 60 μM, 180 min/wash) of the same compound?
A: 34.2%

Q: And the Percentage specific release ([1]; 60 μM, 180 min)?
A: 36.5%

Q: And the activation at 30 µM ([1]; Ictalurus punctatus, 1 h, 30 μM, 60 min)?
A: 49.2%

Q: What about the activation at 60 µM ([1]; Ictalurus punctatus, 1 h, 60 μM, 60 min) of the same compound?
A: 48.3%

Q: What about the activation at 30 µM ([1]; Ictalurus punctatus, 2 h, 30 μM, 120 min) of the same compound?
A: 50.2%

Q: And the activation at 60 µM ([1]; Ictalurus punctatus, 2 h, 60 μM, 120 min)?
A: 42.1%

Q: And the activation at 30 µM ([1]; Ictalurus punctatus, 3 h, 30 μM, 180 min/wash)?
A: 38.7%

Q: What about the activation at 30 µM ([1]; Ictalurus punctatus, 3 h, 30 μM, 180 min) of the same compound?
A: 38.5%

Q: And the activation at 60 µM ([1]; Ictalurus punctatus, 3 h, 60 μM, 180 min/wash)?
A: 31.8%

Q: What about the activation at 60 µM ([1]; Ictalurus punctatus, 3 h, 60 μM, 180 min) of the same compound?
A: 40.6%

Q: And the Percentage specific release ([3]; E:T 40:1, 10^-4 M A23187, 60 μM H7 and HA1004, 0.5 μg/ml genistein, 1:3 dilution of tissue culture supernatant, media control 20.6)?
A: 33.2%

Q: What about the activity at 60 µM ([3]; 4 × 10^6 NCC/ml, read-out: Percentage of control (E:T ratio) 40%) of the same compound?
A: 211%

Q: And the activity at 60 µM ([3]; read-out: Percentage of control (E:T ratio) 20%)?
A: 243%

Q: And the “influence of pretreatment on A23187 activation” value ([3]; pretreatment prior to A23187, di-HCl)?
A: did not appear to be additive and did not influence the final level of activation

Q: And the “specific protein phosphorylation after mab 5C6” value [4]?
A: did occur

Q: What about the “effect on protein kinase C” value (protein kinase C (PKC)) of the same compound?
A: no effect on PKC

Q: And the “inhibition of cyclic nucleotide dependent kinases” value [2]?
A: inhibits mostly cyclic nucleotide dependent kinases

Q: For `[O]=[V+2]` [vanadyl ion, vanadyl (IV) ion], which “Na^+ /K^+ ATPase inhibition” value (Na^+ /K^+ ATPase) is on record?
A: little effect
